Measured values reported in US20250188040A1, “PHARMACEUTICAL COMPOSITIONS COMPRISING WRN HELICASE INHIBITORS” (Vividion Therapeutics, Inc., priority 2022, published 2025).

Tests used:
[1] = biological target: hWRN(519-1227)_C-H3CV-GFP-10His (Homo sapiens, UniProt Q14191); experiment: Helicase Assay for WRN Inhibition (ATP-dependent, fluorescence based); conditions: WRN Helicase IC50, 30 min preincubation with ATP, 30 min reaction
HCT 116 cells = experiment: Cell growth assay (CellTiter-Glo 2.0), HCT 116 MSI-H cell line; conditions: Homo sapiens, HCT-116, 120 h, read-out: Cell Growth Inhibition GI50 HCT-116
SW480 cells = experiment: Cell growth assay (CellTiter-Glo 2.0), SW480 MSS cell line; conditions: Homo sapiens, SW480, 120 h, read-out: Cell Growth Inhibition GI50 SW480
WRN C727 = biological target: T1, WRN C727 (Homo sapiens, UniProt Q14191); experiment: Target engagement, in vitro (lysate), OCI-AML2; assay type: binding; conditions: read-out: OCI-AML2 WRN C727 TE50 in vitro (lysate)
T1 construct: endogenous in cells; host or cells: OCI-AML2
Outline: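 Percent engagement of WRN C727 is expressed against DMSO-treated samples, measured by PRM mass spectrometry of streptavidin-enriched, probe-tagged tryptic peptides. Compound dose responses preceded probe labelling of solvent-exposed cysteines, in either living OCI-AML2 cells or their lysates.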

Chain of hWRN(519-1227)_C-H3CV-GFP-10His (Q14191 519-1227): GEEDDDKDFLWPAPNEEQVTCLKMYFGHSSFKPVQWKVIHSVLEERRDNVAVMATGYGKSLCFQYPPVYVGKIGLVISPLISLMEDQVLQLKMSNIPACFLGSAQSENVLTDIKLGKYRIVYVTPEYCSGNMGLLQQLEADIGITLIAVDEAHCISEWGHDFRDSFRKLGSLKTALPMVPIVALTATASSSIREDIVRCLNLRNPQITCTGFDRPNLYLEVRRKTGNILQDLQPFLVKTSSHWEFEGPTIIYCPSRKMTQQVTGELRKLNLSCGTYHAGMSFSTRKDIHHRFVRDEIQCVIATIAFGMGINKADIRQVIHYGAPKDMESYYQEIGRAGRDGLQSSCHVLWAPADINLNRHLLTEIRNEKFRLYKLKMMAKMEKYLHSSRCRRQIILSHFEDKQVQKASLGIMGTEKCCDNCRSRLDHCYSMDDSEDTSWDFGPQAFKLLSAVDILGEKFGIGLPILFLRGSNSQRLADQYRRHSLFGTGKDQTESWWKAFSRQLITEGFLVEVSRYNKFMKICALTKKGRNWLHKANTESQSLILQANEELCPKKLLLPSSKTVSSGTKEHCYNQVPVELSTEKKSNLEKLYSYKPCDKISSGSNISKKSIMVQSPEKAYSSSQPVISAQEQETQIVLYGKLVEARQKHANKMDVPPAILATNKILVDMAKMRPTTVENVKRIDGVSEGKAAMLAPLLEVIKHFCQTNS
T1 sequence (Q14191 whole entry): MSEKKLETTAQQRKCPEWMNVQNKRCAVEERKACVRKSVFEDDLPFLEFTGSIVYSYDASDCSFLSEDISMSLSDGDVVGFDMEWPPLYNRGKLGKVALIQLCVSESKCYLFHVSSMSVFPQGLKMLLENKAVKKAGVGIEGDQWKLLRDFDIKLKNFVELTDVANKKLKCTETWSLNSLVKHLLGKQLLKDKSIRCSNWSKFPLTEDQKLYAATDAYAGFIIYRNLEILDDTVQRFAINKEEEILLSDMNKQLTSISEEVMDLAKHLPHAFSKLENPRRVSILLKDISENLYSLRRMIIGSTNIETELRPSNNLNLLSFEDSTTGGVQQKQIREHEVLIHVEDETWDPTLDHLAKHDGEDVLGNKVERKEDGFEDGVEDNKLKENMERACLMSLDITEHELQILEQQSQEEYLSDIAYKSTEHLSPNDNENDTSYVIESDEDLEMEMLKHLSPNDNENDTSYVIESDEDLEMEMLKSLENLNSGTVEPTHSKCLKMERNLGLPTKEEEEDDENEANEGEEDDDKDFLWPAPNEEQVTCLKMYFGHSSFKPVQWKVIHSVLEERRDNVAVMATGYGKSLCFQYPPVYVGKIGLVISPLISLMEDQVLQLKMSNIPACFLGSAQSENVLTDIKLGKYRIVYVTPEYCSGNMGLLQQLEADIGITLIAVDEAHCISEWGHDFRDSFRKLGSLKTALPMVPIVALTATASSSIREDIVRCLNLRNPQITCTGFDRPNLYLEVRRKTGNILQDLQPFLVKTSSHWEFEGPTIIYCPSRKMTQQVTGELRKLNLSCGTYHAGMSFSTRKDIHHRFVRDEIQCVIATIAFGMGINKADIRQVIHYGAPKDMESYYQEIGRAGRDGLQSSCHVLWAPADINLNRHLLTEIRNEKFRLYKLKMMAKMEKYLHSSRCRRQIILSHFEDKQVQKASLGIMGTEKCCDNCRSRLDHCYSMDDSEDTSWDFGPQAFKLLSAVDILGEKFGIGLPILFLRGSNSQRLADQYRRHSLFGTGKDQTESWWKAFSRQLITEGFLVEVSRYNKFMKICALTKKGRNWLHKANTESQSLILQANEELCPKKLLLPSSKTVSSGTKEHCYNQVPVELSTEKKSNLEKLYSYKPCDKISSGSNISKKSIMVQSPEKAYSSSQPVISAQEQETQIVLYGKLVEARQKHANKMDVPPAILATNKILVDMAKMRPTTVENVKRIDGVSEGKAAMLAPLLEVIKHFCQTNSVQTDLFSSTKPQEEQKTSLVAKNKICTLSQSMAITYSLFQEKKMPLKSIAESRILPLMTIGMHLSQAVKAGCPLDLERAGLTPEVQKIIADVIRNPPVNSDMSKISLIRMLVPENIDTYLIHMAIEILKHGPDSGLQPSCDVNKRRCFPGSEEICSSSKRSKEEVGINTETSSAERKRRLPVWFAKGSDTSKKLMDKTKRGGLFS

IC50 [1] | GI50 (HCT 116 cells) | GI50 (SW480 cells) | IC50 (WRN C727) | SMILES
0.16 µM | 0.0467 µM | 45.2 µM | 0.6 µM | CC(C)(C)c1ncc(C(=O)N[C@H](/C=C/S(C)(=O)=O)C2CCC(F)(F)CC2)c(Oc2ccccc2)n1 [Example 72, (S,E)-2-(tert-butyl)-N-(1-(4,4-difluorocyclohexyl)-3-(methylsulfonyl)allyl)-4-phenoxypyrimidine-5-carboxamide]
0.15 µM | 0.3 µM | 16 µM | 0.47 µM | CC(C)(C)c1ncc(C(=O)N[C@H](/C=C/S(C)(=O)=O)CC(F)F)c(Oc2ccccc2)n1 [Example 73, (S,E)-2-(tert-butyl)-N-(5,5-difluoro-1-(methylsulfonyl)pent-1-en-3-yl)-4-phenoxypyrimidine-5-carboxamide]
4.9 µM | 3.4 µM | > 10 µM | 50 µM | CS(=O)(=O)/C=C/CNC(=O)c1cnc(C2CCCCC2)nc1Oc1ccccc1 [Example 76, (E)-2-cyclohexyl-N-(3-(methylsulfonyl)allyl)-4-phenoxypyrimidine-5-carboxamide]
9.33 µM | 2.6 µM | > 10 µM | 50 µM | C[C@@H](/C=C/S(C)(=O)=O)NC(=O)c1cnc(C2CCCO2)nc1Oc1ccccc1 (stereo partly drawn) [Example 78, N—((S,E)-4-(methylsulfonyl)but-3-en-2-yl)-4-phenoxy-2-(tetrahydrofuran-2-yl)pyrimidine-5-carboxamide]
0.55 µM | 0.28 µM | 20 µM | 0.7 µM | CS(=O)(=O)/C=C/[C@@H](NC(=O)c1cnc(C(F)(F)F)nc1Oc1ccccc1)C1CC1 [Example 82, (S,E)-N-(1-cyclopropyl-3-(methylsulfonyl)allyl)-4-phenoxy-2-(trifluoromethyl)pyrimidine-5-carboxamide]
0.238 µM | 0.202 µM | 19.1 µM | 0.38 µM | C[C@@H](/C=C/S(C)(=O)=O)NC(=O)c1cnc(C(F)(F)C(F)(F)F)nc1Oc1ccccc1 [Example 83, (S,E)-N-(4-(methylsulfonyl)but-3-en-2-yl)-2-(perfluoroethyl)-4-phenoxypyrimidine-5-carboxamide]
0.12 µM | 0.0484 µM | 11.5 µM | 0.22 µM | COC[C@@H](/C=C/S(C)(=O)=O)NC(=O)c1cnc(C(F)(F)C(F)(F)F)nc1Oc1ccccc1 [Example 85, (R,E)-N-(1-methoxy-4-(methylsulfonyl)but-3-en-2-yl)-2-(perfluoroethyl)-4-phenoxypyrimidine-5-carboxamide]
1.1 µM | 0.245 µM | 43 µM | 10 µM | CN(C)C(=O)C[C@@H](/C=C/S(C)(=O)=O)NC(=O)c1cnc(C(C)(F)F)nc1Oc1ccccc1 [Example 92, (S,E)-2-(1,1-difluoroethyl)-N-(5-(dimethylamino)-1-(methylsulfonyl)-5-oxopent-1-en-3-yl)-4-phenoxypyrimidine-5-carboxamide]
0.46 µM | 0.128 µM | 87.5 µM | 4.19 µM | CO[C@@H](C)[C@@H](/C=C/S(C)(=O)=O)NC(=O)c1cnc(C(C)(F)F)nc1Oc1ccccc1 [Example 93, 2-(1,1-difluoroethyl)-N-((3R,4S,E)-4-methoxy-1-(methylsulfonyl)pent-1-en-3-yl)-4-phenoxypyrimidine-5-carboxamide]
2 µM | 0.74 µM | 40 µM | 10 µM | C[C@@H](/C=C/S(C)(=O)=O)NC(=O)c1cnc(C2(F)CC2)nc1Oc1ccccc1 [Example 99, (S,E)-2-(1-fluorocyclopropyl)-N-(4-(methylsulfonyl)but-3-en-2-yl)-4-phenoxypyrimidine-5-carboxamide]
1.1 µM | 0.374 µM | 7.86 µM | 6.03 µM | C[C@@H](/C=C/S(C)(=O)=O)NC(=O)c1cnc(C2(C(F)(F)F)CC2)nc1Oc1ccccc1 [Example 101, (S,E)-N-(4-(methylsulfonyl)but-3-en-2-yl)-4-phenoxy-2-(1-(trifluoromethyl)cyclopropyl)pyrimidine-5-carboxamide]
1.5 µM | 0.359 µM | 20.4 µM | 3.43 µM | C[C@@H](/C=C/S(C)(=O)=O)NC(=O)c1cnc(C2CC(F)(F)C2)nc1Oc1ccccc1 [Example 103, (S,E)-2-(3,3-difluorocyclobutyl)-N-(4-(methylsulfonyl)but-3-en-2-yl)-4-phenoxypyrimidine-5-carboxamide]
4.6 µM | 4.8 µM | > 10 µM | 7.43 µM | CS(=O)(=O)/C=C/CNC(=O)c1cnc(C2CCCC2)nc1Oc1ccc(F)cc1 [Example 112, (E)-2-cyclopentyl-4-(4-fluorophenoxy)-N-(3-(methylsulfonyl)allyl)pyrimidine-5-carboxamide]
1.8 µM | 1.1 µM | 6.2 µM | 2.33 µM | C[C@@H](/C=C/S(C)(=O)=O)NC(=O)c1cnc(C2CCCC2)nc1Oc1ccc(F)cc1 [Example 113, (S,E)-2-cyclopentyl-4-(4-fluorophenoxy)-N-(4-(methylsulfonyl)but-3-en-2-yl)pyrimidine-5-carboxamide]
2.9 µM | 2.1 µM | > 10 µM | 30.1 µM | C[C@@H](/C=C/S(C)(=O)=O)NC(=O)c1cnc(C2CCCC2)nc1Oc1ccccc1F [Example 115, (S,E)-2-cyclopentyl-4-(2-fluorophenoxy)-N-(4-(methylsulfonyl)but-3-en-2-yl)pyrimidine-5-carboxamide]
6.7 µM | 6 µM | 7.4 µM | > 100 µM | CS(=O)(=O)/C=C/CNC(=O)c1cnc(C2CCCC2)nc1Oc1cccc(Cl)c1 [Example 117, (E)-4-(3-chlorophenoxy)-2-cyclopentyl-N-(3-(methylsulfonyl)allyl)pyrimidine-5-carboxamide]
14 µM | > 10 µM | > 10 µM | 6.92 µM | C[C@@H](/C=C/S(C)(=O)=O)NC(=O)c1cnc(C2CCCC2)nc1Oc1ccc(C#N)cc1 [Example 124, (S,E)-4-(4-cyanophenoxy)-2-cyclopentyl-N-(4-(methylsulfonyl)but-3-en-2-yl)pyrimidine-5-carboxamide]
12.5 µM | 3.1 µM | > 10 µM | 52.2 µM | C[C@@H](/C=C/S(C)(=O)=O)NC(=O)c1cnc(C2CCCC2)nc1Oc1cccnc1 [Example 125, (S,E)-2-cyclopentyl-N-(4-(methylsulfonyl)but-3-en-2-yl)-4-(pyridin-3-yloxy)pyrimidine-5-carboxamide]
5.9 µM | 2.5 µM | 4.2 µM | 25.1 µM | C[C@@H](/C=C/S(C)(=O)=O)NC(=O)c1cnc(C2CCCC2)nc1OC1CCCCCC1 [Example 128, (S,E)-4-(cycloheptyloxy)-2-cyclopentyl-N-(4-(methylsulfonyl)but-3-en-2-yl)pyrimidine-5-carboxamide]
11 µM | 5.1 µM | > 10 µM | 18.5 µM | C[C@@H](/C=C/S(C)(=O)=O)NC(=O)c1cnc(C2CCCC2)nc1Oc1cccc(O)c1 [Example 136, (S,E)-2-cyclopentyl-4-(3-hydroxyphenoxy)-N-(4-(methylsulfonyl)but-3-en-2-yl)pyrimidine-5-carboxamide]
3.4 µM | 0.98 µM | > 10 µM | 10 µM | C[C@@H](/C=C/S(C)(=O)=O)NC(=O)c1cnc(C2CCCC2)nc1Oc1ccccc1O [Example 137, (S,E)-2-cyclopentyl-4-(2-hydroxyphenoxy)-N-(4-(methylsulfonyl)but-3-en-2-yl)pyrimidine-5-carboxamide]
4 µM | 1.1 µM | > 10 µM | 15 µM | C[C@@H](/C=C/S(C)(=O)=O)NC(=O)c1cnc(C(C)(C)C)nc1O[C@@H]1C[C@@H]2C[C@@H]2C1 [Example 157, 4-[[(1S,5R)-3-bicyclo[3.1.0]hexanyl]oxy]-2-tert-butyl-N—[(E,1S)-1-methyl-3-methylsulfonyl-allyl]pyrimidine-5-carboxamide]
0.9 µM | 0.15 µM | 3.4 µM | 6 µM | CC(C)(C)c1ncc(C(=O)N[C@H](/C=C/S(C)(=O)=O)C2CC2)c(O[C@H]2C[C@@H]3C[C@@H]3C2)n1 [Example 160, 4-(((1R,3s,5S)-bicyclo[3.1.0]hexan-3-yl)oxy)-2-(tert-butyl)-N—((S,E)-1-cyclopropyl-3-(methylsulfonyl)allyl)pyrimidine-5-carboxamide]

SMILES | IC50 [1] | GI50 (HCT 116 cells) | GI50 (SW480 cells) | IC50 (WRN C727)
CC(C)(C)OC[C@@H](/C=C/S(C)(=O)=O)NC(=O)c1cnc(C(C)(F)F)nc1Oc1ccccc1 [Example 96, (R,E)-N-(1-(tert-butoxy)-4-(methylsulfonyl)but-3-en-2-yl)-2-(1,1-difluoroethyl)-4-phenoxypyrimidine-5-carboxamide] | 0.2 µM | 0.0369 µM | 27.5 µM | 0.4 µM
C[C@@H](/C=C/S(C)(=O)=O)NC(=O)c1cnc(C2CCCC2)nc1OC1CCC1 [Example 127, (S,E)-4-cyclobutoxy-2-cyclopentyl-N-(4-(methylsulfonyl)but-3-en-2-yl)pyrimidine-5-carboxamide] | 4.27 µM | 1.3 µM | 5.3 µM | 7.28 µM
